Assay results published in ChEMBL document CHEMBL4177562, “Synthetic ligand promotes gene expression by affecting GC sequence in promoter” (2017).
Activity calls are given as the source filed them. The rule behind the calls is not given here.

How the values were obtained:
HeLa [1] = experiment: Upregulation of GCNA mRNA expression in human HeLa cells at 0.1 uM after 24 hrs by RT-qPCR analysis; format: functional, cell-based
HeLa [2] = experiment: Upregulation of nucleus-related genes (GO:0005634) in human HeLa cells measured at 12 hrs; format: functional
HeLa [3] = experiment: Downregulation of COQ9 mRNA expression in human HeLa cells at 0.1 uM after 24 hrs by RT-qPCR analysis; format: functional, cell-based
HeLa [4] = experiment: Upregulation of IFIT2 mRNA expression in human HeLa cells at 0.1 uM after 24 hrs by RT-qPCR analysis; format: functional, cell-based
HeLa [5] = experiment: Downregulation of skin development-related genes (GO:0043588) in human HeLa cells measured at 12 to 24 hrs; format: functional
HeLa [6] = experiment: Downregulation of cell periphery-related genes (GO:0071944) in human HeLa cells measured at 24 hrs; format: functional
HeLa [7] = experiment: Upregulation of spindle midzone-related genes (GO:0051233) in human HeLa cells measured at 24 hrs; format: functional
HeLa [8] = experiment: Upregulation of OASL mRNA expression in human HeLa cells at 0.1 uM after 24 hrs by RT-qPCR analysis; format: functional, cell-based
HeLa [9] = experiment: Upregulation of transcription/DNA-templated-related genes (GO:0006351) in human HeLa cells measured at 12 hrs; format: functional
HeLa [10] = experiment: Downregulation of extracellular exosome-related genes (GO:0070062) in human HeLa cells measured at 24 hrs; format: functional
[11] = Binding affinity to GCGG of 5'-Biotinylated-dCAG CGT GTG GTT TTG C(Me)GGTTT ACC ACA CGC TG-3' (unknown origin) at 1.25 to 20 nM after 30 secs by SPR analysis
HeLa [12] = experiment: Downregulation of proteinaceous extracellular matrix-related genes (GO:0005578) in human HeLa cells measured at 24 hrs; format: functional
HeLa [13] = experiment: Upregulation of cytoplasm-related genes (GO:0005737) in human HeLa cells measured at 12 to 24 hrs; format: functional
[14] = Binding affinity to AAAA of 5'-Biotinylated-dCAG CGT GTG GTT TTA AAATTT ACC ACA CGC TG-3' (unknown origin) at 1.25 to 20 nM after 30 secs by SPR analysis
HeLa [15] = experiment: Upregulation of SULT4A1 mRNA expression in human HeLa cells at 0.1 uM after 24 hrs by RT-qPCR analysis; format: functional, cell-based
HeLa [16] = experiment: Upregulation of NBPF10 mRNA expression in human HeLa cells at 0.1 uM after 24 hrs by RT-qPCR analysis; format: functional, cell-based
HeLa [17] = experiment: Downregulation of CERS5 mRNA expression in human HeLa cells at 0.1 uM after 24 hrs by RT-qPCR analysis; format: functional, cell-based
HeLa [18] = experiment: Upregulation of nucleolus-related genes (GO:0005730) in human HeLa cells measured at 24 hrs; format: functional
HeLa [19] = experiment: Upregulation of microtubule cytoskeleton-related genes (GO:0015630) in human HeLa cells measured at 24 hrs; format: functional
[20] = Binding affinity to CGGT of 5'-Biotinylated-dCAG CGT GTG GTT TTC GGTTTT ACC ACA CGC TG-3' (unknown origin) after 30 secs by SPR analysis
HeLa [21] = experiment: Downregulation of peroxisome-related genes (GO:0005777) in human HeLa cells measured at 12 hrs; format: functional
HeLa [22] = experiment: Upregulation of spindle midzone-related genes (GO:0051233) in human HeLa cells measured at 12 to 24 hrs; format: functional
HeLa [23] = experiment: Downregulation of serine C-palmitoyltransferase complex-related genes (GO:0017059) in human HeLa cells measured at 12 hrs; format: functional
[24] = Binding affinity to GGGG of 5'-Biotinylated-dCAG CGT GTG GTT TTG GGGTTT ACC ACA CGC TG-3' (unknown origin) after 30 secs by SPR analysis
HeLa [25] = experiment: Downregulation of oxidation-reduction process-related genes (GO:0055114) in human HeLa cells measured at 12 to 24 hrs; format: functional; set-up: scale not given: the % may be the effect or the level left
HeLa [26] = experiment: Downregulation of extracellular region-related genes (GO:0005576) in human HeLa cells measured at 24 hrs; format: functional
[27] = Binding affinity to GCGG of 5'-Biotinylated-dCAG CGT GTG GTT TTG CGGTTT ACC ACA CGC TG-3' (unknown origin) after 30 secs by SPR analysis
HeLa [28] = experiment: Downregulation of ciliary tip-related genes (GO:0097542) in human HeLa cells measured at 12 hrs; format: functional
HeLa [29] = experiment: Downregulation of mitochondrial matrix-related genes (GO:0005759) in human HeLa cells measured at 12 hrs; format: functional
[30] = Binding affinity to TCTT of 5'-Biotinylated-dCAG CGT GTG GTT TTT CTTTTT ACC ACA CGC TG-3' (unknown origin) at 1.25 to 20 nM after 30 secs by SPR analysis
HeLa [31] = experiment: Downregulation of primary cilium-related genes (GO:0072372) in human HeLa cells measured at 12 hrs; format: functional
HeLa [32] = experiment: Upregulation of negative regulation of inclusion body assembly-related genes (GO:0090084) in human HeLa cells measured at 12 hrs; format: functional
HeLa [33] = experiment: Upregulation of nucleoplasm-related genes (GO:0005654) in human HeLa cells measured at 12 hrs; format: functional
[34] = Binding affinity to TGGC of 5'-Biotinylated-dCAG CGT GTG GTT TTT GGCTTT ACC ACA CGC TG-3' (unknown origin) after 30 secs by SPR analysis
[35] = Binding affinity to GGGC of 5'-Biotinylated-dCAG CGT GTG GTT TTG GGCTTT ACC ACA CGC TG-3' (unknown origin) after 30 secs by SPR analysis
HeLa [36] = experiment: Downregulation of apical plasma membrane-related genes (GO:0016324) in human HeLa cells measured at 12 to 24 hrs; format: functional
[37] = Binding affinity to TTTA of 5'-Biotinylated-dCAG CGT GTG GTT TTT TTATTT ACC ACA CGC TG-3' (unknown origin) at 1.25 to 20 nM after 30 secs by SPR analysis
HeLa [38] = experiment: Upregulation of cytoplasm-related genes (GO:0005737) in human HeLa cells measured at 24 hrs; format: functional
HeLa [39] = experiment: Upregulation of positive regulation of cytokinesis-related genes (GO:0032467) in human HeLa cells measured at 12 to 24 hrs; format: functional
HeLa [40] = experiment: Upregulation of cytoplasm-related genes (GO:0005737) in human HeLa cells measured at 12 hrs; format: functional
[41] = Binding affinity to CACA of 5'-Biotinylated-dCAG CGT GTG GTT TTC ACATTT ACC ACA CGC TG-3' (unknown origin) at 1.25 to 20 nM after 30 secs by SPR analysis
HeLa [42] = experiment: Downregulation of progesterone metabolic process-related genes (GO:0042448) in human HeLa cells measured at 24 hrs; format: functional
[43] = Binding affinity to TTTT of 5'-Biotinylated-dCAG CGT GTG GTT TTT TTTTTT ACC ACA CGC TG-3' (unknown origin) at 1.25 to 20 nM after 30 secs by SPR analysis
HeLa [44] = experiment: Upregulation of mitotic nuclear division-related genes (GO:0007067) in human HeLa cells measured at 24 hrs; format: functional
[45] = Binding affinity to CGGG of 5'-Biotinylated-dCAG CGT GTG GTT TTC GGGTTT ACC ACA CGC TG-3' (unknown origin) after 30 secs by SPR analysis
[46] = Binding affinity to ATTT of 5'-Biotinylated-dCAG CGT GTG GTT TTA TTTTTT ACC ACA CGC TG-3' (unknown origin) at 1.25 to 20 nM after 30 secs by SPR analysis
HeLa [47] = experiment: Downregulation of STK39 mRNA expression in human HeLa cells at 0.1 uM after 24 hrs by RT-qPCR analysis; format: functional, cell-based

In the case of `Cc1ccc2ccc(NC(=O)OCCCN(CCCCCCCCN(CCCOC(=O)Nc3ccc4ccc(C)nc4n3)CCCOC(=O)Nc3ccc4ccc(C)nc4n3)CCCOC(=O)Nc3ccc4ccc(C)nc4n3)nc2n1`, the Activity (HeLa [1]) is reported as “Active”, the Activity (HeLa [2]) is reported as 43.78% and the Activity (HeLa [3]) is reported as “Active”. For the same compound, the Activity (HeLa [4]) was “Active”, the Activity (HeLa [5]) was 6.67% and the Activity (HeLa [6]) was 4.08%. For the same compound, the Activity (HeLa [7]) was 3.08%, the Activity (HeLa [8]) was “Active” and the Activity (HeLa [9]) was 20.28%. For the same compound, the Activity (HeLa [10]) was 24.49%, the Activity [11] was “inactive” and the Activity (HeLa [12]) was 12.24%. For the same compound, the Activity (HeLa [13]) was 33.33%, the Activity [14] was “inactive” and the Activity (HeLa [15]) was “Active”. The Activity (HeLa [16]) was “Active”, the Activity (HeLa [17]) was “Active” and the Activity (HeLa [18]) was 9.23%. The Activity (HeLa [19]) was 4.62%, the Activity [20] was “Dose-dependent effect” and the Activity (HeLa [21]) was 2.14%. For the same compound, the Activity (HeLa [22]) was 5.56%, the Activity (HeLa [23]) was 1.07% and the Activity [24] was “Dose-dependent effect”. The Activity (HeLa [25]) was 16.67%, the Activity (HeLa [26]) was 22.45% and the Activity [27] was “Dose-dependent effect”. The Activity (HeLa [28]) was 1.6%, the Activity (HeLa [29]) was 3.74% and the Activity [30] was “inactive”. It also gave an Activity (HeLa [31]) of 2.14%, an Activity (HeLa [32]) of 2.3% and an Activity (HeLa [33]) of 26.27%. For the same compound, the Activity [34] was “Dose-dependent effect”, the Activity [35] was “Dose-dependent effect” and the Activity (HeLa [36]) was 10%. For the same compound, the Activity [37] was “inactive”, the Activity (HeLa [38]) was 33.85% and the Activity (HeLa [39]) was 5.55%. The Activity (HeLa [40]) was 34.56%, the Activity [41] was “inactive” and the Activity (HeLa [42]) was 4.08%. For the same compound, the Activity [43] was “inactive”, the Activity (HeLa [44]) was 7.69% and the Activity [45] was “Dose-dependent effect”. For the same compound, the Activity [46] was “inactive” and the Activity (HeLa [47]) was “Active”.
